Patent publication US20050153894A1, “p21 peptides” (Cyclacel Limited, priority 1999, published 2005)
Entries after “also recorded” stand apart in the source; their conditions may differ. Where two headings read alike, the source gives them in different places. Square brackets hold non-standard residues; d marks the D form. βLeu = beta-Leu

What was measured:
[1] = target: T1, CDK4/Cyclin D1 (Homo sapiens, UniProt P24385); test: CDK4/Cyclin D1 kinase assay, phosphorylation of GST-Rb; format: biochemical
T1 construct: made in house; host or cells: CDK4: Sf9 insect cells (baculovirus)
Protocol: (§1) The phosphorylation reaction mixture (total volume 40 μl) consisted of 50 mM HEPES pH 7.4, 20 mM MgCl2, 5 mM EGTA, 2 mM DTT, 20 mM β-glycerophosphate, 2 mM NaF, 1 mM Na3VO4, Protease Inhibitors Cocktail (Sigma, see above), BSA 0.5 mg/ml, 1 μg purified enzyme complex, 10 μl of GST-Rb-Sepharose beads, 100 μM ATP, 0.2 μCi ^32P-ATP. The reaction was carried out for 30 min at 30° C. at constant shaking. At the end of this period 100 μl of 50 mM HEPES, pH 7.4 and 1 mM ATP were added to each well and the total volume was transferred onto GFC filtered plate. The plate was washed 5 times with 200 μl of 50 mM HEPES, pH 7.4 and 1 mM ATP. To each well were added 50 μl scintillant liquid and the radioactivity of the samples was measured on Scintilation counter (Topcount, HP). The IC50 values of different peptides were calculated using GraFit software.
Peptides were synthesized as described above. Cyclin D1 was expressed in E coli BL21(DE3) using PET expression vector and purified from the inclusion bodies. After refolding Cyclin D1 was cross-linked on SulfoLink agarose support (PIERCE). CDK4-6×His was expressed in Sf9 insect cells infected with the appropriate baculovirus construct and purified by metal-affinity chromatography (Quiagen). […] CDK4/Cyclin D1 phosphorilation of Rb was determined by incorporation of radio-labeled phosphate in GST-Rb in 96-well format kinase assay. […] The reaction was carried out for 30 min at 30 C at constant shaking. The GST-Rb-Sepharose beads were washed with 50 mM HEPES and 1 mM ATP and the radioactivity was measured on Scintillation counter (Topcount, HP)

[2] = target: T2, Cyclin D1 (Homo sapiens, UniProt P24385); test: Competitive Cyclin D1 binding assay (ELISA), immobilised biotinylated p21 (149-159); settings: for IC50: immobilised p21 (149-159) peptide
T2 construct: made in house
From the text: The amount of bound Cyclin D1/Cyclin A was immunodetected and quantified by Turbo-ELISA reagent (PIERCE).
The next important question was if these peptides share the same kinase inhibitory mechanism (bind to the same Cyclin docking site).

[3] = target: T3, CDK2/Cyclin E (Homo sapiens, UniProt P24864); test: CDK2/Cyclin E kinase assay, phosphorylation of GST-Rb; format: biochemical
T3 construct: 6xHis; made in house; host or cells: Sf9 insect cells (baculovirus co-expression)
Protocol: as §1

[4] = target: T1, CDK4/Cyclin D1; settings: WO97/42222 and Ball et al., cited from earlier work
[5] = target: T3, CDK2/Cyclin E; settings: GST-Rb phosphorylation; Ball et al.; cited from earlier work
[6] = target: CDK2/cyclin A (Homo sapiens, UniProt P20248); test: Functional kinase assay, CDK2/cyclin A phosphorylation of GST-pRb(773-928); format: biochemical; settings: read-out: Inhibitory activity IC50 ± SD, Functional kinase assay
Protocol: Reactions were stopped on ice, followed by addition of 5 μL/well of glutathione-Sepharose 4B (Amersham Biosciences) and further incubation with shaking for 30 min at room temperature. The mixtures were then filtered on Whatman GF/C filterplates and washed 4 times with 0.2 mL/well of 50 mM HEPES containing 1 mM ATP. Plates were dried, sealed, and scintillant (Microscint 40) was added. Incorporated radioactivity was measured using a scintillation counter (TopCount, Packard Instruments, Pangbourne, Berks, UK). Half-maximal inhibition (IC50) was calculated from dose-response curves.

[7] = target: T4, CDK1/Cyclin B (Homo sapiens, UniProt P14635); test: CDK1/Cyclin B kinase assay, phosphorylation of Histone 1; format: biochemical; settings: for IC50: CDK1-Cyclin B induced phosphorylation of Histone 1
T4 construct: 6xHis; made in house; host or cells: Sf9 insect cells (baculovirus co-expression)
Protocol: (§2) Histone 1 phosphorylation induced by CDK2/Cyclin E and CDK1/Cyclin B was measured using similar method. The concentration of Histone 1 in the kinase reaction was 1 mg/ml (unless different stated).

[8] = target: T4, CDK1/Cyclin B; test: CDK1/Cyclin B kinase assay, phosphorylation of GST-Rb; format: biochemical; settings: CDK1-Cyclin B induced phosphorylation of GST-Rb
Protocol: as §1

[9] = target: T3, CDK2/Cyclin E; test: CDK2/Cyclin E kinase assay, phosphorylation of Histone 1; format: biochemical
Protocol: as §2

[10] = target: cyclin B (Homo sapiens, UniProt P14635); test: Pull-down with immobilised peptide: cyclin B; format: binding
[11] = target: Cyclin A (Homo sapiens, UniProt P20248); test: Pull-down with immobilised biotinylated peptide: cyclin A; format: binding; settings: biotinylated peptide on streptavidin-agarose beads
From the text: (§3) A biotinylated version of p21(149-159) was used in “pull-down” experiments with the purified CDK sub-units, CDK2, CDK4, cyclin A, cyclin D1, and with the complexes of CDK2/cyclin A or CDK4/cyclin D1 kinases, in order to determine the binding partner of the peptide. The biotinylated peptide was pre-immobilised on streptavidin-agarose beads. […] Both CDK2 and CDK4 were “pulled down”, however, with biotinylated p21(149-159)-streptavidin-agarose beads when they were in a complex with cyclin A or cyclin D1, respectively. Similar results were obtained with cyclin E and CDK2/cyclin E complex. […] Such a method may be utilised either alone or together with a candidate substance to identify cyclin binding moities and/or inhibitors of cyclin-CDK interaction.

[12] = target: T2, Cyclin D1; test: Pull-down with immobilised biotinylated peptide: cyclin D1; format: binding; settings: biotinylated peptide on streptavidin-agarose beads
From the text: as §3

[13] = target: CDK2 (Homo sapiens, UniProt P24941); test: Pull-down with immobilised biotinylated peptide: CDK2; format: binding; settings: in the absence of cyclin partner
From the text: as §3

[14] = target: T5, CDK4 (Homo sapiens, UniProt P11802); test: Pull-down with immobilised biotinylated peptide: CDK4; format: binding; settings: in the absence of cyclin partner
T5 construct: 6xHis; made in house; host or cells: Sf9 insect cells (baculovirus)
From the text: as §3

[15] = GST-pRb substrate, [ATP] = 100 μM

T1 sequence (P24385 whole entry): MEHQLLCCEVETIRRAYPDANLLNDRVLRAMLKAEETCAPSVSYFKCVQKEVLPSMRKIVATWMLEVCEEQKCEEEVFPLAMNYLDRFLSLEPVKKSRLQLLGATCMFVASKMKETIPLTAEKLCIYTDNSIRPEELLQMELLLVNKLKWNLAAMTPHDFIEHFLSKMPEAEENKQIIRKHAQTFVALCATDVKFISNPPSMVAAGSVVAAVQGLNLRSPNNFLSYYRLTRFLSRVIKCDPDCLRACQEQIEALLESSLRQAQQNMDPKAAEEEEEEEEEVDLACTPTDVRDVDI
T1 sequence (P11802 whole entry partner): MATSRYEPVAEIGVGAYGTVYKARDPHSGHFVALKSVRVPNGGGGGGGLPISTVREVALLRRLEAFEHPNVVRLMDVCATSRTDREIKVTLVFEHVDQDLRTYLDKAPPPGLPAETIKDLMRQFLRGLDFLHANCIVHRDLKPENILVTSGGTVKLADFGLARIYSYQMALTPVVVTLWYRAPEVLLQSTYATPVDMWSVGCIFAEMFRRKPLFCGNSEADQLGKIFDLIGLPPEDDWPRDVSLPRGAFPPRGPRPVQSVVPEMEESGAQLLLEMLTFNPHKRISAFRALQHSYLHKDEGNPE
T2 sequence (P24385 whole entry): as the sequence (P24385 whole entry) above
T4 sequence (P14635 whole entry): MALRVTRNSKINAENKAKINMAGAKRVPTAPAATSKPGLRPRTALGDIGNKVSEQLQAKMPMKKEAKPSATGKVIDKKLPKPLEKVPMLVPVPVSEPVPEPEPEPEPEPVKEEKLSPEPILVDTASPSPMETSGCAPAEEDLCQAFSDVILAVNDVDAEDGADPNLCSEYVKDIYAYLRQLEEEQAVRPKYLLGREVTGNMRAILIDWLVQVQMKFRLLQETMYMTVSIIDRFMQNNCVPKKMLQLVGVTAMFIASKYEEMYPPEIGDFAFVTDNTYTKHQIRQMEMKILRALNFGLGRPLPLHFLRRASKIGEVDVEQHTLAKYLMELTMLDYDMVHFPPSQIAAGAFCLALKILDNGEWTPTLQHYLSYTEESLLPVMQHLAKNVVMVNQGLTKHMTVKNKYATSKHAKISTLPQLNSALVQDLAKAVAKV
T4 sequence (P06493 whole entry partner): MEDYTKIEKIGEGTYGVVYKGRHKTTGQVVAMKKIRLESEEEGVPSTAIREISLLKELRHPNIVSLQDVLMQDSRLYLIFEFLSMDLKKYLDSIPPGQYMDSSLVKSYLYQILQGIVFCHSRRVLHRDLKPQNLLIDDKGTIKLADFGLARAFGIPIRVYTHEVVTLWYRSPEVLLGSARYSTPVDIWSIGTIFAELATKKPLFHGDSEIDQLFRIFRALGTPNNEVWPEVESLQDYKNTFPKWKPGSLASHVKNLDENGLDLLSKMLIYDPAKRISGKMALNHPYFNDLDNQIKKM
Chain of cyclin B (P14635 whole entry): as the sequence (P14635 whole entry) above
T5 sequence (P11802 whole entry, species assumed): as the sequence (P11802 whole entry partner) above
Chain of Cyclin A (P20248 whole entry): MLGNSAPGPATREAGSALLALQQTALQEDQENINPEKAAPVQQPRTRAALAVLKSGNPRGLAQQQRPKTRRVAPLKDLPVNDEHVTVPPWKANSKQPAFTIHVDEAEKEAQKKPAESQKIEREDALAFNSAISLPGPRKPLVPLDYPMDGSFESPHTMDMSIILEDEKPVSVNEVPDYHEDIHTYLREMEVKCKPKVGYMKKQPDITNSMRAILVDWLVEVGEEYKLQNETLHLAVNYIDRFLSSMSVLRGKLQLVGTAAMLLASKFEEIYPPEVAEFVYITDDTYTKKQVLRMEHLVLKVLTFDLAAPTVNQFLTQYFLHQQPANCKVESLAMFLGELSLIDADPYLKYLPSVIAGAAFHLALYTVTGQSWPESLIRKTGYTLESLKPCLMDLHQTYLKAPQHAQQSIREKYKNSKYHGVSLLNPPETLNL

With `CC(C)C[C@H](NC(=O)[C@H](CC(=O)O)NC(=O)[C@H](CC(C)C)NC(=O)[C@H](CCCNC(=N)N)NC(=O)[C@H](CCCNC(=N)N)NC(=O)[C@H](CCCCN)NC(=O)[C@@H](NC(=O)[C@@H]1CCCN1)C(C)C)C(N)=O` [reference compound] the “inhibition of CDK4/Cyclin D1 phosphorylation of GST-Rb, in words” value [1] was “not able to inhibit”, the “Kinase Inhibition Cyclin D1/CDK4 % Inhibition” value ([1]; phosphorylation of pRb) was 58% and the IC50 ([1]; phosphorylation of pRb, read-out: Kinase Inhibition Cyclin D1/CDK4 IC50) was 99 µM. The “competition with Biotin-DFYHSKRRLIF for binding to Cyclin D1, in words” value [2] was “not able”, the IC50 [2] was > 100 µM and the “Kinase Inhibition Cyclin E/CDK2 % Inhibition” value ([3]; phosphorylation of pRb) was 74%. The IC50 ([3]; phosphorylation of pRb, read-out: Kinase Inhibition Cyclin E/CDK2 IC50) was 2.1 µM.
In the case of `CC(C)C[C@H](NC(=O)[C@H](CC(=O)O)NC(=O)[C@H](CC(C)C)NC(=O)[C@H](CCCNC(=N)N)NC(=O)[C@H](CCCNC(=N)N)NC(=O)[C@H](CCCCN)NC(=O)[C@H](CO)NC(=O)[C@@H](N)Cc1c[nH]cn1)C(N)=O`, the “inhibition of CDK4/Cyclin D1 phosphorylation of GST-Rb, in words” value [1] is reported as “not able to inhibit”, the “Kinase Inhibition Cyclin D1/CDK4 % Inhibition” value ([1]; phosphorylation of pRb) is reported as 24% and the “competition with Biotin-DFYHSKRRLIF for binding to Cyclin D1, in words” value [2] is reported as “not able”. The IC50 [2] was > 200 µM and the “Kinase Inhibition Cyclin E/CDK2 % Inhibition” value ([3]; phosphorylation of pRb) was 74%.
In the case of KRRLIFSK [reference compound], the “Kinase Inhibition Cyclin D1/CDK4 % Inhibition” value [1, 15] is given as 20%, the “concentration for inhibitory activity against cyclin D1-CDK4 relative to parent p21(141-160)” value [4] is given as 1000 times and the “Kinase Inhibition Cyclin E/CDK2 % Inhibition” value [3, 15] is given as 60%. The “Kinase Inhibition Cyclin E/CDK2 IC30” value [3, 15] was >200 µM.
In the case of “p21(141-160): 20-residue peptide derived from the C-terminus of p21^WAF1 (residues 141-160), Ball et al.”, the “activity against cyclinD1/CDK4 relative to cyclinE/CDK2” value [5] is listed as 40 times and the IC50 ([4]; Asp149Ala effect said not reproducible, read-out: IC50, cyclin D1-CDK4 inhibition) is listed as 0.1 µM.
VI.38 (Ac-RR[βLeu]F-NH2) gave an IC50 ([6]; recombinant human CDK2/cyclin A, GST-pRb(773-928) substrate, 30 min at 30° C) of 216 µM.
For `CC(C)C[C@H](NC(=O)[C@H](CCCNC(=N)N)NC(=O)[C@H](CCCNC(=N)N)NC(=O)[C@H](CCCCN)NC(=O)[C@H](CO)NC(=O)[C@@H](N)Cc1c[nH]cn1)C(=O)N[C@@H](Cc1ccccc1)C(=O)NCC(N)=O`, the IC50 [2] was > 200 µM.
`CC(=O)N[C@@H](CC(C)C)C(=O)N[C@@H](CC(N)=O)C(=O)N[C@@H](Cc1ccc(F)cc1)C(N)=O` [VI.42] gave an IC50 [6] of 139 ± 10 µM.
For `CC[C@H](C)[C@H](NC(=O)[C@H](CC(C)C)NC(=O)[C@H](CCCNC(=N)N)NC(=O)[C@H](CCCNC(=N)N)NC(=O)[C@H](CCCCN)NC(=O)[C@H](C)NC(=O)[C@H](Cc1c[nH]cn1)NC(=O)[C@H](Cc1ccc(O)cc1)NC(=O)[C@H](Cc1ccccc1)NC(=O)[C@@H](N)CC(=O)O)C(=O)N[C@@H](Cc1ccccc1)C(=O)N[C@@H](CO)C(N)=O` [p21(149-160)Ser153Ala], the IC50 [7] was > 200 µM, the IC50 [8] was > 200 µM and the IC50 ([3]; read-out: IC50, CDK2-Cyclin E induced phosphorylation of GST-Rb) was 0.04 µM.
H-HAKRRLIF-NH2 showed an IC50 [2] of 13 µM.
For H-DFYHSKRRLIFS-NH2 [p21(149-160)], the “inhibition of CDK1/cyclin B phosphorylation of histone H1, in words” value [7] was “did not have any significant effect”, the IC50 [7] was > 200 µM and the “inhibition of CDK4/Cyclin D1 phosphorylation of GST-Rb, in words” value [1] was “very similar activity”. For the same compound, the inhibition at 100 µM [1, 15] was 70%, the “inhibition of CDK2/Cyclin E phosphorylation of Histone 1, in words” value [9] was “completely inactive; also recorded: did not inhibit” and the “inhibition of CDK2/Cyclin E phosphorylation of Histone 1, in words” value ([9]; listed as p21 (149-160)) was “do not inhibit”. The IC50 [8] was > 200 µM, the “pull-down of cyclin B (monomer or complex with CDK1)” value [10] was “unable to precipitate” and the “inhibition of CDK2/Cyclin E phosphorylation of GST-Rb, in words” value [3] was “specifically inhibit”.
In the case of H-DFYHSKRRLIF-NH2 [p21(149-159)], the IC50 [8] is reported as > 200 µM, the “binding to cyclin A in pull-down” value [11] is reported as “bound” and the “binding to cyclin D1 in pull-down” value [12] is reported as “bound”. The “binding to CDK2 in pull-down” value [13] was “failed to interact” and the “binding to CDK4 in pull-down” value [14] was “failed to interact”.
